Data: patent publication US6030940A, “Peptide analog inhibitors of urokinase receptor activity” (Chiron Corporation, priority 1997, dated 2000)
Where “and” joins values, the source holds several entries; their conditions need not be identical. Equal values may be shown once. Read-outs that look alike come from different tables or passages of the source. Square brackets hold non-standard residues; d marks the D form. Ends that are not written are not given here. Peptide text beside a SMILES is read from it. 1Nal = N[C@@H](Cc1cccc2ccccc12)C(=O)O

What was measured:
[1] = molecular target: T1, soluble uPAR (Homo sapiens, UniProt Q03405); assay: 125I-ATF competition binding to immobilized soluble uPAR (Activity Assay); settings: competition with iodinated human uPA ATF tracer (100-500 pM), 2h at room temperature, PBS/0.1% BSA, triplicate
T1 construct: Purified soluble uPAR was biotinylated
T1 sequence (Q03405 23-305 limits assumed): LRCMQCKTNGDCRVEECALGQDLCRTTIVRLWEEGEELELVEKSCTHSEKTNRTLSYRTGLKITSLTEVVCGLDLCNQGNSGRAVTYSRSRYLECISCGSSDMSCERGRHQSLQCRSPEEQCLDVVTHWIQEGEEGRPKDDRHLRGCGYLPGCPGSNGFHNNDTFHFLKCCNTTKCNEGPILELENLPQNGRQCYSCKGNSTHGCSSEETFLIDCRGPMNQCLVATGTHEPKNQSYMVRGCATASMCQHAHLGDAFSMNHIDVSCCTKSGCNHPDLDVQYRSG
Description: Purified soluble uPAR was biotinylated with NHS-biotin (Molecular Probes) and immobilized at 0.3 Tg/mL in phosphate-buffered saline (PBS)/0.1% BSA on streptavidin-coated Immulon-2 96-well Removawell plates. Human uPA N-terminal fragment (ATF; from M. Shuman, University of California, San Francisco) was iodinated by the Iodo-Gen method (Pierce). Unincorporated ^125 I was separated from labeled protein by Sephadex G-25 chromatography. The specific activity of the labeled protein was between 5×10^5 and 1×10^6 […]. The iodinated tracer (100-500 pM) was incubated with the peptides prepared in Example 1 triplicate for 2h at room temperature in PBS/0.1% BSA in a total volume of 200 TL. The plates were washed with PBS/0.1% BSA 3X, and remaining bound radioactivity was measured on an LKB 1277 Gammamaster. Scatchard analysis was performed by using the LIGAND program (Biosoft, Milltown, N.J.).

[2] = U937 fibroblast cells; S. A. Rabbani et al.; cited from earlier work
[3] = test system: SaOS-2 osteosarcoma cell line; settings: S. A. Rabbani et al.; cited from earlier work
[4] = molecular target: uPAR (Homo sapiens, UniProt Q03405); settings: E. Appella et al., J Biol Chem (1987), cited from earlier work
uPAR, sequence (Q03405 23-335): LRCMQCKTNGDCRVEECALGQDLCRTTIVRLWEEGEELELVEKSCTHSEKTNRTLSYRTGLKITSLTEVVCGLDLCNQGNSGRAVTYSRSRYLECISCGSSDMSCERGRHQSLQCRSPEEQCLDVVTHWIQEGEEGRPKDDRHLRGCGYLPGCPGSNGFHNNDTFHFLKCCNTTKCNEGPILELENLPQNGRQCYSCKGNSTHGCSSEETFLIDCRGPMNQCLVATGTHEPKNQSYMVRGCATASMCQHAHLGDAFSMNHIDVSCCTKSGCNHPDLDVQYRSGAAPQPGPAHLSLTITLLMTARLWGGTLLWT

Compound	IC50 ([1]; read-out: IC50)	also measured
CC(C)C[C@H](NC(=O)[C@H](Cc1ccc(O)cc1)NC(=O)[C@H](CCC(N)=O)NC(=O)CNC(=O)[C@H](Cc1ccccc1)NC(=O)[C@H](CC(N)=O)NC(=O)[C@@H](N)CC(C)C)C(=O)N[C@@H](Cc1c[nH]c2ccccc12)C(=O)N[C@@H](Cc1ccc(O)cc1)C(=O)N[C@H](C(=O)O)[C@@H](C)O [SEQ ID NO: 1, LNFGQYLWYT] (H-LNFGQYLWYT-OH)	41 ± 17 nM	–
CC(C)C[C@H](NC(=O)[C@H](Cc1ccc(O)cc1)NC(=O)[C@H](CCC(N)=O)NC(=O)CNC(=O)[C@H](Cc1ccccc1)NC(=O)[C@H](CC(N)=O)NC(=O)[C@@H](N)CC(C)C)C(=O)N[C@@H](Cc1cccc2ccccc12)C(=O)N[C@@H](Cc1ccc(O)cc1)C(=O)N[C@H](C(=O)O)[C@@H](C)O [SEQ ID NO: 4, LNFGQYLnAYT] (H-LNFGQYL[1Nal]YT-OH)	–	IC50 ([1]; IC50 (nM)): 7 nM and 6 nM
CC(C)C[C@H](NC(=O)[C@H](Cc1ccc(O)cc1)NC(=O)[C@H](CCC(N)=O)NC(=O)[C@@H](CO)NC(=O)[C@H](Cc1ccccc1)NC(=O)[C@H](CC(N)=O)NC(=O)[C@@H](N)CC(C)C)C(=O)N[C@@H](Cc1c[nH]c2ccccc12)C(=O)N[C@@H](Cc1ccc(O)cc1)C(=O)N[C@H](C(=O)O)[C@@H](C)O [SEQ ID NO: 5, LNFdSQYLWYT] (H-LNF[dS]QYLWYT-OH)	7 nM and 11 nM	–
CC(C)C[C@H](NC(=O)[C@H](Cc1ccc(O)cc1)NC(=O)[C@H](CCC(N)=O)NC(=O)[C@@H](CO)NC(=O)[C@H](Cc1ccccc1)NC(=O)[C@H](CC(N)=O)NC(=O)[C@@H](N)CC(C)C)C(=O)N[C@@H](Cc1cccc2ccccc12)C(=O)N[C@@H](Cc1ccc(O)cc1)C(=O)N[C@H](C(=O)O)[C@@H](C)O [SEQ ID NO: 7, LNFdSQYLnAYT] (H-LNF[dS]QYL[1Nal]YT-OH)	33 ± 3 nM	–
fucosylated EGF-like domain: fucosylated EGF-like domain (uPA4-43, produced by cleavage from pro-uPA) (LHQVPSNCDCLNGGT(Fuc)CVSNKYFSNIHWCNCPKKFGGQHCE; cysteine pairing not given here; UniProt P00749 24-63, looked up, fragment)	–	mitogenic activity [2]: Neither fucosylated nor non-fucosylated EGF-like domain was mitogenic; mitogenic activity [3]: mitogenic
uPA12-32: The critical domain alone, residues 12-32 of the uPA EGF-like domain (DCLNGGTCVSNKYFSNIHWCN; UniProt P00749 32-52, looked up, fragment)	–	affinity relative to intact ATF (fold less) [4]: about 100 fold; Kd ([4]; read-out: affinity for uPAR): 40 nM

More lines, main results first:

IC50 ([1]; read-out: IC50)	Compound	also measured
8 nM and 14 nM	CC(C)C[C@H](NC(=O)[C@H](Cc1ccc(O)cc1)NC(=O)[C@@H](CS)NC(=O)CNC(=O)[C@H](Cc1ccccc1)NC(=O)[C@H](CC(N)=O)NC(=O)[C@@H](N)CC(C)C)C(=O)N[C@@H](Cc1c[nH]c2ccccc12)C(=O)N[C@@H](CS)C(=O)N[C@H](C(=O)O)[C@@H](C)O [SEQ ID NO: 8, LNFGdCYLWCT] (H-LNFG[dC]YLWCT-OH)	–
9 nM and 23 nM	CC(C)C[C@H](NC(=O)[C@H](Cc1ccc(O)cc1)NC(=O)[C@H](CS)NC(=O)[C@@H](CO)NC(=O)[C@H](Cc1ccccc1)NC(=O)[C@H](CS)NC(=O)[C@@H](N)CC(C)C)C(=O)N[C@@H](Cc1c[nH]c2ccccc12)C(=O)N[C@@H](Cc1ccc(O)cc1)C(=O)N[C@H](C(=O)O)[C@@H](C)O [SEQ ID NO: 9, LCFdSCYLWYT] (H-LCF[dS]CYLWYT-OH)	–
79 ± 10 nM	CC(C)C[C@H](NC(=O)[C@H](Cc1ccc(O)cc1)NC(=O)[C@H](CS)NC(=O)[C@@H](CO)NC(=O)[C@H](Cc1ccccc1)NC(=O)[C@H](CS)NC(=O)[C@@H](N)CC(C)C)C(=O)N[C@@H](Cc1cccc2ccccc12)C(=O)N[C@@H](Cc1ccc(O)cc1)C(=O)N[C@H](C(=O)O)[C@@H](C)O [SEQ ID NO: 10, LCFdSCYLnAYT] (H-LCF[dS]CYL[1Nal]YT-OH)	–
225 ± 40 nM	CC(C)C[C@H](NC(=O)[C@H](Cc1ccc(O)cc1)NC(=O)[C@H](CS)NC(=O)[C@@H](CO)NC(=O)[C@H](Cc1ccccc1)NC(=O)[C@H](CC(N)=O)NC(=O)[C@@H](N)CC(C)C)C(=O)N[C@@H](Cc1c[nH]c2ccccc12)C(=O)N[C@@H](CS)C(=O)N[C@H](C(=O)O)[C@@H](C)O [SEQ ID NO: 11, LNFdSCYLWCT] (H-LNF[dS]CYLWCT-OH)	–
